Series [1] can be described thus: Twelve months storage, THC degradation to Cannabinol by gas chromatography. To be noted: twelve months storage at −10 °C in darkness, 5 ml screw top bottles.
From the text: Extract was concentrated by vacuum evaporation and percent of THC degradation quantitated by gas chromatograpy.
For series [2] the following is noted: intranasally at 1.0 to 1.3 mg/kg in rats; cited from earlier work.
The conditions of series [3]: oral administration; cited from earlier work.

As for `CCCCCc1cc(O)c2c(c1)OC(C)(C)[C@@H]1CCC(C)=C[C@@H]21` [THC, Delta-9-tetrahydrocannabinol], in series [1], the “percent degraded to Cannabinol” value is given as 22.6%. Further, in series [2], the “analgesic response, time post administration” value is 15 min and the “duration of analgesic response” value was 120 min. The “oral dose reaching the circulation unchanged” value in series [3] was 10%.

Source of the values: US20180000727A1, “COMPOSITION AND METHODS TO IMPROVE STABILITY, DOSING, PHARMA[…] PRODUCT SHELF LIFE OF ENDOCANNABINOIDS, PHYTOCANNABINOIDS AND […] CA[…] BY NASAL INHAER” (priority 2015, published 2018).
